Assay results reported in patent publication US9765035B2 (priority 2013, dated 2017).
pIC50: −log10 of the molar value. Where two headings read alike, the source gives them in different places.

Columns and labels:
[1] = molecular target: T1, human PRMT1 (Homo sapiens, UniProt Q99873); assay: biochemical
T1 construct: GST-tagged PRMT1; made in house; host or cells: High Five insect cells (baculovirus)
Description: General Materials. S-adenosylmethionine (SAM), S-adenosylhomocysteine (SAH), bicine, Tween20, dimethylsulfoxide (DMSO), bovine skin gelatin (BSG), and Tris(2-carboxyethyl)phosphine hydrochloride solution (TCEP) were purchased from Sigma-Aldrich at the highest level of purity possible. ^3H-SAM was purchase from American Radiolabeled Chemicals with a specific activity of 80 Ci/mmol. 384-well streptavidin Flashplates were purchased from PerkinElmer.
Substrates. Peptide representative of human histone H4 residues 36-50 was synthesized with an N-terminal linker-affinity tag motif and a C-terminal amide cap by 21st Century Biochemicals. The peptide was purified by high-performance liquid chromatography (HPLC) to greater than 95% purity and confirmed by liquid chromatography mass spectrometry (LC-MS). The sequence was Biot-Ahx-[…]-amide (SEQ ID NO.:1).
Molecular Biology: Full-length human PRMT1 isoform 1 (NM_001536.5) transcript clone was amplified from an HEK 293 cDNA library, incorporating flanking 5′ sequence encoding a FLAG tag ([…]) (SEQ ID NO.:2) fused directly to Met 1 of PRMT1. The amplified gene was subcloned into pFastBacI (Life Technologies) modified to encode an N-terminal GST tag and a TEV cleavage sequence
Protein Expression. Recombinant baculovirus were generated according to Bac-to-Bac kit instructions (Life Technologies). Protein over-expression was accomplished by infecting exponentially growing High Five insect cell culture at 1.5×10^6 cell/ml with 1:100 ratio of virus. Infections were carried out at 27° C. for 48 hours, harvested by centrifugation, and stored at −80° C. for purification.
Protein Purification. […] GST-tagged PRMT1 was eluted with 50 mM Tris, 2 mM glutathione, pH 7.8, dialysed in buffer A and concentrated to 1 mg/mL. The purity of recovered protein was 73%. Reference: Wasilko, D. J. and S. E. Lee: “TIPS: titerless infected-cells preservation and scale-up” Bioprocess J., 5 (2006), pp. 29-32.
General Procedure for PRMT1 Enzyme Assays on Peptide Substrates. The assays were all performed in a buffer consisting of 20 mM Bicine (pH=7.6), 1 mM TCEP, 0.005% BSG, and 0.002% Tween 20, prepared on the day of use. Compounds in 100% DMSO (1 ul) were spotted into a polypropylene 384-well V-bottom plates (Greiner) using a Platemate Plus outfitted with a 384-channel head (Thermo Scientific). DMSO (1 ul) was added to Columns 11, 12, 23, 24, rows A-H for the maximum signal control and 1 ul of SAH, a known product and inhibitor of PRMT1, was added to columns 11, 12, 23, 24, rows I-P for the minimum signal control. A cocktail (40 ul) containing the PRMT1 enzyme was added by Multidrop Combi (Thermo-Fisher). The compounds were allowed to incubate with PRMT1 for 30 min at room temperature, then a cocktail (10 ul) containing SAM and peptide was added to initiate the reaction (final volume=51 ul). The final concentrations of the components were as follows: PRMT1 was 0.5 nM, ^3H-SAM was 200 nM, non-radiolabeled SAM was 1.5 uM, peptide was 20 nM, SAH in the minimum signal control wells was 1 mM, and the DMSO concentration was 2%. The assays were stopped by the addition of non-radiolabeled SAM (10 ul) to a final concentration of 300 uM, which dilutes the ^3H-SAM to a level where its incorporation into the peptide substrate is no longer detectable. 50 ul of the reaction in the 384-well polypropylene plate was then transferred to a 384-well Flashplate and the biotinylated peptides were allowed to bind to the streptavidin surface for at least 1 hour before being washed once with 0.1% Tween20 in a Biotek EL×405 plate washer. The plates were then read in a PerkinElmer TopCount plate reader to measure the quantity of ^3H-labeled peptide bound to the Flashplate surface, measured as disintegrations per minute (dpm) or alternatively, referred to as counts per minute (cpm).
Where dpm=disintegrations per minute, cmpd=signal in assay well, and min and max are the respective minimum and maximum signal controls. […]

[2] = test system: RKO cells, mono-methyl arginine; assay: RKO Methylation Assay (In Cell Western for mono-methyl arginine); type: cell-based; details: Homo sapiens
Description: RKO adherent cells were purchased from ATCC (American Type Culture Collection), Manassas, Va., USA. DMEM/Glutamax medium, penicillin-streptomycin, heat inactivated fetal bovine serum, 0.05% trypsin and D-PBS were purchased from Life Technologies, Grand Island, N.Y., USA. Odyssey blocking buffer, 800CW goat anti-rabbit IgG (H+L) antibody, and Licor Odyssey infrared scanner were purchased from Licor Biosciences, Lincoln, Nebr., USA. Mono-methyl arginine antibody was purchased from Cell Signaling Technology, Danvers, Mass., USA. Methanol was purchased from VWR, Franklin, Mass., USA. 10% Tween 20 was purchased from KPL, Inc., Gaithersburg, Md., USA. DRAQ5 was purchased from Biostatus Limited, Leicestershire, UK.
RKO adherent cells were maintained in growth medium (DMEM/Glutamax medium supplemented with 10% v/v heat inactivated fetal bovine serum and 100 units/mL penicillin-streptomycin) and cultured at 37° C. under 5% CO2.
Cell Treatment, in Cell Western (ICW) for Detection of Mono-Methyl Arginine and DNA Content. […] Compound (100 nL) from a 96-well source plate was added directly to 384 well cell plate. Plates were incubated at 37° C., 5% CO2 for 72 hours. After three days of incubation, plates were brought to room temperature outside of the incubator for ten minutes and blotted on paper towels to remove cell media. 50 μL of ice cold 100% methanol was added directly to each well and incubated for 30 min at room temperature. After 30 min, plates were transferred to a Biotek EL406 plate washer and washed 2 times with 100 μL per well of wash buffer (1×PBS). Next 60 μL per well of Odyssey blocking buffer (Odyssey Buffer with 0.1% Tween 20 (v/v)) were added to each plate and incubated 1 hour at room temperature. Blocking buffer was removed and 20 μL per well of primary antibody was added (mono-methyl arginine diluted 1:200 in Odyssey buffer with 0.1% Tween 20 (v/v)) and plates were incubated overnight (16 hours) at 4° C. Plates were washed 5 times with 100 μL per well of wash buffer. […] The plates were washed 5 times with 100 μL per well wash buffer then 2 times with 100 μL per well of water. Plates were allowed to dry at room temperature then imaged on the Licor Odyssey machine which measures integrated intensity at 700 nm and 800 nm wavelengths. Both 700 and 800 channels were scanned.
Calculations: First, the ratio for each well was determined by:
Each plate included fourteen control wells of DMSO only treatment (minimum activation) as well as fourteen control wells for maximum activation treated with 20 μM of a reference compound. The average of the ratio values for each control type was calculated and used to determine the percent activation for each test well in the plate. Reference compound was serially diluted three-fold in DMSO for a total of nine test concentrations, beginning at 20 μM. Percent activation was determined and EC30 curves were generated using triplicate wells per concentration of compound.

[3] = biochemical evaluation, peptide substrate, read-out: PRMT1 IC50
[4] = single experiment or average of multiple experiments, read-out: PRMT1 biochemical evaluation (numerical)
[5] = RKO, 72 h, read-out: RGG ICW EC30
[6] = In Cell Western EC30, RKO cells, 72 hours, single experiment or average of multiple experiments, read-out: RGG ICW
[7] = In Cell Western, RKO cells, 72 hours, read-out: RGG ICW EC30

T1 sequence (Q99873 other isoform, or with tags, fused parts or gaps): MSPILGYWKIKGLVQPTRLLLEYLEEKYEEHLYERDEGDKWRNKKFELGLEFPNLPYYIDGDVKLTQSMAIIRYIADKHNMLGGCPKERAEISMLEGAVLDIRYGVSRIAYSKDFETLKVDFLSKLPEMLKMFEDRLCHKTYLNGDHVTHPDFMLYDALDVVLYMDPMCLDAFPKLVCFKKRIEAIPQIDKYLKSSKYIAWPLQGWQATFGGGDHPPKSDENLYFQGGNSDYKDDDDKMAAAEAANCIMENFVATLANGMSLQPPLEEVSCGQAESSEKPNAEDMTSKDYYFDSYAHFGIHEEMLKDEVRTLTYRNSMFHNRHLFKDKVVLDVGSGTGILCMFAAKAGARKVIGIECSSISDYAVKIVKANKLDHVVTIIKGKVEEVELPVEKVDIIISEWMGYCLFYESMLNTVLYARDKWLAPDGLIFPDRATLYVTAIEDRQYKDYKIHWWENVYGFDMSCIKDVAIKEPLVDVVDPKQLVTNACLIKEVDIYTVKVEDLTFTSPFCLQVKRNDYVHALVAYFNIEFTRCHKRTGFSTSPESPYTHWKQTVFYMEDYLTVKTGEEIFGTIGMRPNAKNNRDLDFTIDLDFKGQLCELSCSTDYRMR

Row | SMILES | pIC50 [1, 3] | pIC50 [1, 4] | EC30 ([2]; RKO, 72 h, read-out: RGG ICW) [µM] | EC30 [2, 5] [µM] | EC30 [2, 6] [µM] | EC30 [2, 7] [µM]
1 | CNCCN(C)Cc1n[nH]c2ccc(OC3CCOCC3)cc12 [Compound 29, N^1,N^2-dimethyl-N^1-((5-((tetrahydro-2H-pyran-4-yl)oxy)-1H-indazol-3-yl)methyl)ethane-1,2-diamine] | > 7.00 | 7.55 | 5.04 | 3.01 to 12 |  | 
2 | CNCCN(C)Cc1n[nH]c2ccc(Oc3ccccc3Cl)cc12 [Compound 30] | > 7.00 | 7.19 | 7.2 | 3.01 to 12 |  | 
3 | CNCCN(C)Cc1n[nH]c2cccc(OCCC(C)C)c12 [Compound 31] | ≥ 7.00 | 7.33 |  |  | 8.24 | 3.01 to 12
4 | CNCCN(C)Cc1nn(C)c2ccc(OCc3ccc(C#N)cc3)cc12 [Compound 32] | 6.00 to 7.00 | 7.13 | 8.9 | 3.01 to 12 |  | 
5 | CNCCN(C)Cc1n[nH]c2ccc(OCc3ccn(CC(C)C)n3)cc12 [Compound 33] | 6.00 to 7.00 | 7.35 |  |  | 9.06 | 3.01 to 12
6 | CNCCN(C)Cc1c2cc(OCc3ccc(C#N)cc3)ccc2nn1C(C)C [Compound 34] | 5.00 to 5.52 | 6.74 | > 20 | > 12 |  | 
7 | CNCCN(C)Cc1n[nH]c2ccc(OC)cc12 [Compound 35] | 5.00 to 5.52 | 6.73 |  |  | > 20 | > 12
8 | CNCCN(C)Cc1n[nH]c2ccc(O)cc12 [Compound 36, 3-((methyl(2-(methylamino)ethyl)amino)methyl)-1H-indazol-5-ol] | 6.00 to 7.00 | 5.17 |  |  | > 20 | > 12
9 | CNCCN(C)Cc1n[nH]c2ccc(Oc3ccc(C#N)cc3)cc12 [Compound 37] | 5.52 to 6.00 | 5.19 |  |  | > 20 | > 12
10 | CNCCN(C)Cc1nn(C2CCN(C(C)=O)CC2)c2ccc(OCc3ccc(C#N)cc3)cc12 [Compound 38] | 5.00 to 5.52 | 6.26 |  |  | > 20 | > 12
11 | CNCCN(C)Cc1n[nH]c2ccc(Oc3ccc(C(F)(F)F)cc3)cc12 [Compound 39] | > 7.00 | 5.64 | > 20 | > 12 |  | 
